This is an account of results in patent US8791145B2, “Agricultural formulations with acyl morpholines and polar aprotic co-solvents” (Akzo Nobel Chemicals International B.V., priority 2010, dated 2014).

Common to all, as to format: physicochemical
The nature of data set [1]: Differential scanning calorimetry, enthalpy of evaporation. The following applies: DSC 20° C. to 300° C., 5° C./minute. The protocol: To monitor the enthalpy of evaporation differential scanning calorimetry was used. The reason for these measurements was to determine the cohesion forces between N-formyl morpholine and propylene carbonate. The mixtures (N-formyl morpholine/propylene carbonate in different ratio) were scanned from 20° C. to 300° C. with a temperature increase of 5° C./minute, using a DSC1 calorimeter from Mettler Toledo with STARe software.
Background: In DSC, transitions show as peaks or steps in heat flow.

Data set [2] in a line: Solubility in acyl morpholines. The following applies: 23° C. The protocol:
Various agriculturally active ingredients were dissolved in N-formyl morpholine, N-acetyl morpholine and N-propionyl morpholine in order to evaluate the solubility of the active ingredients in the solvents. This was done by adding the active ingredient to a beaker and thereafter adding the solvent until a clear solution was obtained. The solutions were continually stirred at a temperature of 23° C. during the experiments. When everything had been dissolved, the beakers were left without stirring for 24 h to see if the solution was stable (i.e. no crystallization).

A short description of data set [3]: Dilution of Amicarbazone formulation in water, ocular inspection. Details: key: +: No crystals; −: Permanent crystals. The following applies: 100 g/L diluted to 7 g/L. The protocol: The co-solvents used were propylene carbonate (PC), dimethylformamide (DMF) and ethyl lactate (EL). The amount of each co solvent, in % by weight of the total weight of morpholine and co-solvent, can be seen in table 2. The solutions were diluted in local tap water to an end concentration of 7 g/L and the dilution was judged by ocular inspection with the naked eye, and in the table below the following is used: • + No crystals • − Permanent crystals

In data set [1], `CC1COC(=O)O1` (centres unmarked) [0:100, propylene carbonate] gave an Enthalpy of evaporation of 392 J/g.

For `COc1c(Cl)ccc(Cl)c1C(=O)O` [Dicamba], in data set [2], the “Dissolution of active ingredient into N-acetyl morpholine (NAM)” value was >100 grams of active ingredient in 100 g solvent, the “Dissolution of active ingredient into N-formyl morpholine (NFM)” value is recorded as >100 grams of active ingredient in 100 g solvent and the “Dissolution of active ingredient into N-propionyl morpholine (NPM)” value is >100 grams of active ingredient in 100 g solvent.

In the case of `CC1(C)CCC(Cc2ccc(Cl)cc2)C1(O)Cn1cncn1` (centres unmarked) [Metconazole], in data set [2], the “Dissolution of active ingredient into N-acetyl morpholine (NAM)” value is given as >25 grams of active ingredient in 100 g solvent, the “Dissolution of active ingredient into N-formyl morpholine (NFM)” value was >25 grams of active ingredient in 100 g solvent and the “Dissolution of active ingredient into N-propionyl morpholine (NPM)” value is >25 grams of active ingredient in 100 g solvent.

`O=CN1CCOCC1` [100:0, 4-formyl morpholine] returned an Enthalpy of evaporation in data set [1] of 382 J/g.

With `CC(C)c1nn(C(=O)NC(C)(C)C)c(=O)n1N` [Amicarbazone], the “Crystallization upon dilution in water” value was “−” in data set [3] (NAM, 0% DMF); “−” in data set [3] (NAM, 0% EL); “−” in data set [3] (NAM, 0% PC); “−” in data set [3] (NAM, 5% DMF); “−” in data set [3] (NAM, 5% EL); “−” in data set [3] (NAM, 5% PC). The “Crystallization upon dilution in water” value is reported as “−” in data set [3] (NAM, 10% DMF); “−” in data set [3] (NAM, 10% EL); “−” in data set [3] (NAM, 10% PC); “−” in data set [3] (NAM, 20% DMF); “−” in data set [3] (NAM, 20% EL); “−” in data set [3] (NAM, 20% PC). For the same compound, the “Crystallization upon dilution in water” value is “−” in data set [3] (NAM, 30% DMF); “−” in data set [3] (NAM, 30% EL); “−” in data set [3] (NAM, 30% PC); “−” in data set [3] (NAM, 50% DMF); “−” in data set [3] (NAM, 50% EL); “−” in data set [3] (NAM, 50% PC). The “Crystallization upon dilution in water” value in data set [3] (NAM, 95% DMF) is on record as “+”; in data set [3] (NAM, 95% EL) it was “−”; in data set [3] (NAM, 95% PC), “−”; in data set [3] (NFM, 0% DMF), “−”; in data set [3] (NFM, 0% EL), “−”; in data set [3] (NFM, 0% PC) it was “−”. In addition, the “Crystallization upon dilution in water” value in data set [3] (NFM, 5% DMF) is recorded as “−”; in data set [3] (NFM, 5% EL), “−”; in data set [3] (NFM, 5% PC), “−”; in data set [3] (NFM, 10% DMF), “−”; in data set [3] (NFM, 10% EL), “−”; in data set [3] (NFM, 10% PC), “−”. The “Crystallization upon dilution in water” value in data set [3] (NFM, 20% DMF) is “−”; in data set [3] (NFM, 20% EL), “−”; in data set [3] (NFM, 20% PC), “+”; in data set [3] (NFM, 30% DMF), “−”; in data set [3] (NFM, 30% EL) it was “−”; in data set [3] (NFM, 30% PC), “−”. Besides, the “Crystallization upon dilution in water” value in data set [3] (NFM, 50% DMF) was “−”; in data set [3] (NFM, 50% EL), “−”; in data set [3] (NFM, 50% PC), “−”; in data set [3] (NFM, 95% DMF), “+”; in data set [3] (NFM, 95% EL) it was “−”; in data set [3] (NFM, 95% PC) it was “−”.
